Experimental data reported in patent publication US10087187B2, “Imidazopyridazine derivatives as PI3KB inhibitors” (Janssen Pharmaceutica NV, priority 2014, dated 2018).
Like-named read-outs stand apart in the source and are kept apart here.

Key:
PIK3Cα_h = PIK3Cα_h (Homo sapiens (Human), UniProt P42336); experiment: KINOMEscan enzyme binding assay, PIK3Cα; settings: DiscoveRx
Experimental: (§1) Enzyme Binding Assays (KINOMEscan®) Kinase enzyme binding affinities of compounds disclosed herein were determined using the KINOMEscan technology performed by DiscoveRx Corporation, San Diego, Calif., USA (www.kinomescan.com).

PIK3Cβ_h = PIK3Cβ_h (Homo sapiens (Human), UniProt P42338); experiment: KINOMEscan enzyme binding assay, PIK3Cβ; settings: DiscoveRx
Chain of PIK3Cβ_h (P42338 whole entry): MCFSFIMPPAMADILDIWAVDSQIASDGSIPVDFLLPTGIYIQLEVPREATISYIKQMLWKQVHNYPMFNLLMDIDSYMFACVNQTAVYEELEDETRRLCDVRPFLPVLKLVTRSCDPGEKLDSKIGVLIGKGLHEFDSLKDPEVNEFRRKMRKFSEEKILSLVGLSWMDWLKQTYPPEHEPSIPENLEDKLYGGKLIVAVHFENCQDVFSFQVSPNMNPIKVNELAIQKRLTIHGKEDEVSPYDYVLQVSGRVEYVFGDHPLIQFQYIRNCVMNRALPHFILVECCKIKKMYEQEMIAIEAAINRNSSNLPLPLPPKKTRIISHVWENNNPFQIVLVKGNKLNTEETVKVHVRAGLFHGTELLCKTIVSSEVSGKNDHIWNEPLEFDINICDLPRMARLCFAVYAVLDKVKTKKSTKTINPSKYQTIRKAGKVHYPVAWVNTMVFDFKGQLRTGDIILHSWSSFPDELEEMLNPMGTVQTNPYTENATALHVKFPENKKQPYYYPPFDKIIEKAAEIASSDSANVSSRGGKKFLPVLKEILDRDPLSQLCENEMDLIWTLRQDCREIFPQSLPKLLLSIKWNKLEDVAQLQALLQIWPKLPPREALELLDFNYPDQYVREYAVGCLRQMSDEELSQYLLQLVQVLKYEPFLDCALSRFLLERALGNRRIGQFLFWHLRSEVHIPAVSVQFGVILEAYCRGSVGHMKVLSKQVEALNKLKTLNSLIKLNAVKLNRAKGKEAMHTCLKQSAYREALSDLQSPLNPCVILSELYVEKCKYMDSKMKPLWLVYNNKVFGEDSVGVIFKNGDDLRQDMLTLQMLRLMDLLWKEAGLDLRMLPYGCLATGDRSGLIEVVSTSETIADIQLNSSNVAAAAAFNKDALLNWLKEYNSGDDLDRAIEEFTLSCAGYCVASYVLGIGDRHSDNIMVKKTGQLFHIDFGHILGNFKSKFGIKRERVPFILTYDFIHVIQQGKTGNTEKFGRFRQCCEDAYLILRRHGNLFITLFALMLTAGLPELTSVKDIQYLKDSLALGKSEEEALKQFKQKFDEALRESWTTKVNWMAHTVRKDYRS
Experimental: as §1, with “(www.kinomescan.com). Table A reports the obtained Kd values (nM), with the Kd being the inhibitor binding constant: […]” for “(www.kinomescan.com).”

PIK3Cδ_h = PIK3Cδ_h (Homo sapiens (Human), UniProt O00329); experiment: KINOMEscan enzyme binding assay, PIK3Cδ; settings: DiscoveRx
Chain of PIK3Cδ_h (O00329 whole entry): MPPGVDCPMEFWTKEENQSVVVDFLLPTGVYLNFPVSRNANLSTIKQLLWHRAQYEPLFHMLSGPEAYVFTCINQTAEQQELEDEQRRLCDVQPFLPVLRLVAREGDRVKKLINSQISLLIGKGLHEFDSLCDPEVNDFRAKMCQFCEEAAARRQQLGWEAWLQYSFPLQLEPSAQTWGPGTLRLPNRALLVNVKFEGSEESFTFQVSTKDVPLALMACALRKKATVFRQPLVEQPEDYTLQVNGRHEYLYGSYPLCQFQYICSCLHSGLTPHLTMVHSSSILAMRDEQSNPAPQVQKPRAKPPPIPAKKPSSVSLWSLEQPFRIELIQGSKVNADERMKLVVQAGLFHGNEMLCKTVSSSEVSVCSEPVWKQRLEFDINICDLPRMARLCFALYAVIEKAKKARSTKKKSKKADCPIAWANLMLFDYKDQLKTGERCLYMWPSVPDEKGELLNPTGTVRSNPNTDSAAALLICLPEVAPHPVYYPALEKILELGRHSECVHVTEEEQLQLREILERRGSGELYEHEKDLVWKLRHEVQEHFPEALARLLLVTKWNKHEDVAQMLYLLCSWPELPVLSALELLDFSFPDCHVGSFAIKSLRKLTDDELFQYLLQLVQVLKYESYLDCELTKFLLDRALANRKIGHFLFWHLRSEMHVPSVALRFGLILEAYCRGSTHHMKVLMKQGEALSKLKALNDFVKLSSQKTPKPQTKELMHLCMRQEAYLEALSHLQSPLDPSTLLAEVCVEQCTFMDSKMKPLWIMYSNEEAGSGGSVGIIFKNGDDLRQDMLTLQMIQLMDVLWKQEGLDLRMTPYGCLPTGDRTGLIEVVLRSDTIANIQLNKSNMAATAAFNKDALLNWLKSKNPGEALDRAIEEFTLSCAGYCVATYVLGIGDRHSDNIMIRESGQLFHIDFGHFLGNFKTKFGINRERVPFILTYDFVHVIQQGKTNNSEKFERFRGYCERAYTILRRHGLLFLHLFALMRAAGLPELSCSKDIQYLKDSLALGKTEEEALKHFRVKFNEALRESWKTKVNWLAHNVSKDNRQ
Experimental: as §1, with “(www.kinomescan.com). Table A reports the obtained Kd values (nM), with the Kd being the inhibitor binding constant: […]” for “(www.kinomescan.com).”

PIK3Cγ_h = PIK3Cγ_h (Homo sapiens (Human), UniProt P48736); experiment: KINOMEscan enzyme binding assay, PIK3Cγ; settings: DiscoveRx
Chain of PIK3Cγ_h (P48736 whole entry): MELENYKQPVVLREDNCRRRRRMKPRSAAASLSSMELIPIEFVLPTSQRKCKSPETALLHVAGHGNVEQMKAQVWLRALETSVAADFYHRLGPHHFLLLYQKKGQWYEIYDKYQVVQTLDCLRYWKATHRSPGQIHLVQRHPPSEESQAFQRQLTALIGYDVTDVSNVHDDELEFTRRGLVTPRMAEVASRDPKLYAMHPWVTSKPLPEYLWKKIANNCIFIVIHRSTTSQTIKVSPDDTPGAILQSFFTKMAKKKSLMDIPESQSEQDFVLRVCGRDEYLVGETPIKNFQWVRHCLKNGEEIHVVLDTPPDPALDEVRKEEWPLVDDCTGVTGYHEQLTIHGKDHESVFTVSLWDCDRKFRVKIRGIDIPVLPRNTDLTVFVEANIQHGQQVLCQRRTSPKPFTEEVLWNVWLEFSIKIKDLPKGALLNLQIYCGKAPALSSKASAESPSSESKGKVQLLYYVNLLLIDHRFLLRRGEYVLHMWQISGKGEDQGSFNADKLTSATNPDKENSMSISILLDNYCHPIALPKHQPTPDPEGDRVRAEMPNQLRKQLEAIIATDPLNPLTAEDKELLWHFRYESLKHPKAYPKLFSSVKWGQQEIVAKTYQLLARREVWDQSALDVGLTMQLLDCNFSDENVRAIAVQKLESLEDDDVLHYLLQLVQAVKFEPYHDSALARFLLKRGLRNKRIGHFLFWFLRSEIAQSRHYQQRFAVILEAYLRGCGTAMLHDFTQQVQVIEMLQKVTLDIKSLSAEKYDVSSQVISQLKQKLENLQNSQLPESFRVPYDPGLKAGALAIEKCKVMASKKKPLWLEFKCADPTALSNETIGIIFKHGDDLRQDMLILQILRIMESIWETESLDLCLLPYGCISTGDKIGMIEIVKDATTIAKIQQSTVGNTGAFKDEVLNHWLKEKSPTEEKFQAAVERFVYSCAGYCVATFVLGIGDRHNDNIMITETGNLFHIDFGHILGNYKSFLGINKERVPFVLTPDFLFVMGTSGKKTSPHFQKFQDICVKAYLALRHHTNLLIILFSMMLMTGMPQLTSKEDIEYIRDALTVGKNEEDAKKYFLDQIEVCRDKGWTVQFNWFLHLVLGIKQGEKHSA
Experimental: as §1

MTOR_h = MTOR_h (Homo sapiens (Human), UniProt P42345); experiment: KINOMEscan enzyme binding assay, MTOR; settings: DiscoveRx
Experimental: as §1

[1] = system: Akt phosphorylated at Ser473 in PC-3 cells; experiment: Cellular assay: phosphorylation of Akt (Ser473) in PC-3 cells, MSD ELISA; assay type: cell-based; settings: 60 min incubation with compound, read-out: IC50 pAkt_S473
Experimental: (§2) Cellular activity of PI3Kβ inhibitors was determined by quantifying the phosphorylation of Akt in PC-3 cells. Akt phosphorylated at Ser473 and Thr308 were measured using an enzyme-linked immunosorbent assay (ELISA; Meso Scale Discovery (MSD), Gaithersburg, Md.) and specific primary antibodies from MSD.
(§3) On day 1, PC3 cells (ATCC # […]) were seeded into PerkinElmer MW96 plates at 25.000 cells per well, in 75 μl complete culture medium (DMEM (Dulbecco's Modified Eagle's Medium) high glucose, AQmedia™, D0819, Sigma-Aldrich) containing 10% heat inactivated FCS (Fetal Bovine Serum) and incubated at 37° C., 5% CO2 during 24 hours. On day 2, compound or DMSO (dimethyl sulfoxide) (0.3%) was added and cells were further incubated for 60 min at 37° C., 5% CO2 in a total volume of 100 μl of medium.
(§4) The phosphoprotein assay was executed according to vendor instructions in the Phospho-Akt (Ser473) Assay Whole Cell Lysate Kit (MSD # K15100D-3) and the Phospho-Akt (Thr308) Assay Whole Cell Lysate Kit (MSD # K151DYD-3) using the lysis, blocking and wash buffer provided.
(§5) Briefly, at the end of the cell treatment period, media were removed by aspiration and adherent cells were lysed in 50 μl ice-cold lysis buffer. MSD plates are supplied pre-coated with capture antibodies for Phospho-Akt (Ser473 and Thr308). After blocking, lysates from tissue culture plates were added and plates were washed. Then, a solution containing the detection antibody (anti-total Akt conjugated with an electrochemiluminescent compound-MSD Sulfo-tag label) was added. The signals were detected using an MSD SECTOR Imager 6000 and are proportional to the phospho-Akt titres.
(§6) Data were processed. The percentage of inhibition was plotted against the log concentration of test compounds, and the sigmoidal log concentration-effect curve of best fit was calculated by nonlinear regression analysis. From these concentration-response curves, the IC50 values were calculated. Five concentrations were used for curve fitting.

[2] = system: Akt phosphorylated at Thr308 in PC-3 cells; experiment: Cellular assay: phosphorylation of Akt (Thr308) in PC-3 cells, MSD ELISA; assay type: cell-based; settings: 60 min incubation with compound, read-out: IC50 pAkt_Thr308
Experimental: as §2, §3, §4, §5, §6

Chain of PIK3Cα_h (P42336 whole entry): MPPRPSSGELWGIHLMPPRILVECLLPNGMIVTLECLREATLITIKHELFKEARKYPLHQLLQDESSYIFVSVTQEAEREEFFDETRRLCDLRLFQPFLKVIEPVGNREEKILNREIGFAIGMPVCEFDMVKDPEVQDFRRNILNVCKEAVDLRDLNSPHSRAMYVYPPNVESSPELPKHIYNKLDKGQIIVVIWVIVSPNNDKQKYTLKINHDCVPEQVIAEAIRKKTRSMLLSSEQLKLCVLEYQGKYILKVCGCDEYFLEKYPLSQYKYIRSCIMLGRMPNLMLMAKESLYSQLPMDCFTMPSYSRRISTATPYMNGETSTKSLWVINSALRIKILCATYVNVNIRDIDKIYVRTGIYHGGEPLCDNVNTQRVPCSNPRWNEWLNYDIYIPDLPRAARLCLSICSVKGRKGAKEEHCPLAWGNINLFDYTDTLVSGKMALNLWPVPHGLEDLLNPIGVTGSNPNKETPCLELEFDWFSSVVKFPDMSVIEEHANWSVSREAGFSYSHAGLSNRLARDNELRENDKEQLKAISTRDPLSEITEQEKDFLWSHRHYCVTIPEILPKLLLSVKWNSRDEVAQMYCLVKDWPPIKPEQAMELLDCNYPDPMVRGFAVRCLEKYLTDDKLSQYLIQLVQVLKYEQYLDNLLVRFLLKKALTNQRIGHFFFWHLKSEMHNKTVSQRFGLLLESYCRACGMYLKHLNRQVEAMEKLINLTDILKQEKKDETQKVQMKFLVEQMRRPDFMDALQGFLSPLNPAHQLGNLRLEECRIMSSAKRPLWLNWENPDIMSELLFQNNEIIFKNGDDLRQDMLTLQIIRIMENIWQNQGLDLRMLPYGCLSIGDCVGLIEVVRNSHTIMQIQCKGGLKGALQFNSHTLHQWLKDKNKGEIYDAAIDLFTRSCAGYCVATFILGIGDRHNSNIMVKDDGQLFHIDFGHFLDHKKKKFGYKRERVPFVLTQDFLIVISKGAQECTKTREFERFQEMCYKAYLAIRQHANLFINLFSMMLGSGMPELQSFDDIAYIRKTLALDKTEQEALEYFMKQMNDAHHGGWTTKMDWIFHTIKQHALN

Kd (PIK3Cα_h) | Kd (PIK3Cβ_h) | Kd (PIK3Cδ_h) | Kd (PIK3Cγ_h) | Kd (MTOR_h) | IC50 ([1]; Homo sapiens, PC-3, 1 h) | IC50 ([2]; Homo sapiens, PC-3, 1 h) | IC50 [1] | IC50 [2] | Structure (SMILES)
2290 nM | 2.5 nM | 71 nM | 17000 nM | > 10000 nM | 46 nM | 22 nM |  |  | Cc1c(Cc2c(C(C)O)nc3c(-c4ncc[nH]4)cc(N4CCOCC4)nn23)cccc1C(F)(F)F (stereo not shown) [Compound 31]
1780 nM | 10 nM | 117 nM | 13200 nM | 19500 nM | > 513 nM | > 513 nM |  |  | Cc1nc2c(C(=O)O)cc(N3CCOCC3)nn2c1Nc1ccccc1N1CCOCC1 [Compound 86]
347 nM | 0.6 nM | 5 nM | 2290 nM | 1440 nM | > 513 nM | > 513 nM |  |  | Cc1nc2c(-c3cnc[nH]3)cc(N3CCOCC3)nn2c1Nc1cccc2c1CNCC2 [Compound 42]
> 23000 nM | 0.7 nM | 75 nM | 7480 nM | 2680 nM | 115 nM | 86 nM |  |  | Cc1c(Cc2c(CN)nc3c(N)cc(N4CCOCC4)nn23)cccc1C(F)(F)F [Compound 85]
11200 nM | 1.6 nM | 200 nM | 3720 nM | 912 nM | 79 nM | 40 nM |  |  | Cc1c(F)cccc1Cc1c(CNCCO)nc2c(N)cc(N3CCOCC3)nn12 [Compound 97]
8710 nM | 0.8 nM | 120 nM | 17400 nM | 8910 nM |  |  | 27 nM | 45 nM | Cc1c(Cc2c(COC(=O)C(C)N)nc3c(N)cc(N4CCOCC4)nn23)cccc1C(F)(F)F (stereo not shown) [Compound 79]
26900 nM | 5 nM | 724 nM | > 30200 nM | > 30200 nM | > 513 nM | 282 nM |  |  | CCC(C)C(N)C(=O)OCc1nc2c(N)cc(N3CCOCC3)nn2c1Cc1cccc(C(F)(F)F)c1C (stereo not shown) [Compound 81]
631 nM | 22 nM | 44 nM | 851 nM | 85 nM | 115 nM | 83 nM |  |  | Cc1nc2c(-c3ccn[nH]3)cc(N3CCOCC3)nn2c1Nc1ccccc1N1CCOCC1 [Compound 89]
1200 nM | 43 nM | 219 nM | 3630 nM | 5890 nM | 257 nM | ~224 nM |  |  | Cc1nc2c(C(N)=O)cc(N3CCOCC3)nn2c1Nc1ccccc1N1CCOCC1 [Compound 87]
1710 nM | 1.2 nM | 16 nM | 8680 nM | > 30200 nM |  |  | ~7 nM | ~5 nM | Cc1nc2c(N)cc(N3CCOCC3)nn2c1Nc1cccc(C(F)(F)F)c1CNC(C)CO (stereo not shown) [Compound 56]
8130 nM | 1.4 nM | 178 nM | > 30200 nM | 23400 nM | 138 nM | 186 nM |  |  | Cc1c(Cc2c(CNCCS(C)(=O)=O)nc3c(N)cc(N4CCOCC4)nn23)cccc1C(F)(F)F [Compound 2]
> 30200 nM | 5 nM | 955 nM | > 30200 nM | > 30200 nM | 123 nM | ~85 nM |  |  | Cc1nc2c(N)cc(N3CCOCC3)nn2c1Cc1cccc(C(F)(F)F)c1C [Compound 6]
1350 nM | 1.4 nM | 174 nM | 5250 nM | 12900 nM | 513 nM | 316 nM |  |  | Cc1nc2c(C(=O)O)cc(N3CCOCC3)nn2c1Cc1cccc(C(F)(F)F)c1C [Compound 9]
20900 nM | 3 nM | 276 nM | 23000 nM | 20600 nM | 64 nM | 49 nM |  |  | Cc1c(Cc2c(CCO)nc3c(N)cc(N4CCOCC4)nn23)cccc1C(F)(F)F [Compound 23]
661 nM | 3 nM | 11 nM | 741 nM | 1230 nM | 174 nM | 17 nM |  |  | Cc1nc2c(-c3cnc[nH]3)cc(N3CCOCC3)nn2c1Nc1cccc(C(F)(F)F)c1CN1CC(O)C1 [Compound 46]
30200 nM | 31 nM | 891 nM | 14500 nM | 525 nM | 263 nM | 204 nM |  |  | Cc1nc2c(-c3ccn[nH]3)cc(N3CCOCC3)nn2c1Cc1cccc(C(F)(F)F)c1C [Compound 8]
2690 nM | 21 nM | 955 nM | 6920 nM | 22400 nM | ~158 nM | 355 nM |  |  | Cc1nc2c(C(N)=O)cc(N3CCOCC3)nn2c1Cc1cccc(Cl)c1C [Compound 11]
16600 nM | 2.4 nM | 513 nM | > 30200 nM | 23400 nM | ~34 nM | 74 nM |  |  | Cc1c(Cc2c(CN(C)CCS(C)(=O)=O)nc3c(N)cc(N4CCOCC4)nn23)cccc1C(F)(F)F [Compound 1]
2040 nM | 4 nM | 372 nM | 3900 nM | 20100 nM | 105 nM | 60 nM |  |  | Cc1nc2c(C(N)=O)cc(N3CCOCC3)nn2c1Nc1cccc(C(F)(F)F)c1C [Compound 40]
1070 nM | < 1.5 nM | 69 nM | 6170 nM | 9330 nM | ~316 nM | ~151 nM |  |  | Cc1cccc(Cc2c(C)nc3c(C(=O)O)cc(N4CCOCC4)nn23)c1C [Compound 12]
3310 nM | 2 nM | 47 nM | 7760 nM | > 30200 nM | ~339 nM | 170 nM |  |  | Cc1nc2c(N)cc(N3CCOCC3)nn2c1Nc1cccc(C(F)(F)F)c1CN1CCS(=O)(=O)CC1 [Compound 43]
> 30200 nM | 2.7 nM | 166 nM | 3890 nM | 1900 nM | 174 nM | 120 nM |  |  | Cc1c(F)cccc1Cc1c(CO)nc2c(N)cc(N3CCOCC3)nn12 [Compound 93]
9330 nM | 0.7 nM | 138 nM | 15100 nM | > 30200 nM | 78 nM | 29 nM |  |  | Nc1cc(N2CCOCC2)nn2c(Cc3cccc(C(F)(F)F)c3C3CCNCC3)c(CO)nc12 [Compound 104]
6460 nM | 0.1 nM | 11 nM | 3390 nM | > 30200 nM | 85 nM | ~60 nM |  |  | Cc1nc2c(N)cc(N3CCOCC3)nn2c1Nc1cccc(C(F)(F)F)c1C1CCNCC1 [Compound 59]
1110 nM | 3 nM | 147 nM | 3360 nM | 2490 nM | 43 nM | 37 nM |  |  | Cc1c(Cc2c(CCO)nc3c(-c4c[nH]cn4)cc(N4CCOCC4)nn23)cccc1C(F)(F)F [Compound 24]
525 nM | 0.5 nM | 56 nM | 3550 nM | 9550 nM | > 513 nM | ~263 nM |  |  | Cc1nc2c(C(=O)O)cc(N3CCOCC3)nn2c1Cc1cccc(Cl)c1C [Compound 13]
1580 nM | 1.2 nM | 48 nM | > 15100 nM | 10700 nM | > 513 nM | > 513 nM |  |  | Cc1c(Cc2c(CO)nc3c(C(=O)O)cc(N4CCOCC4)nn23)cccc1C(F)(F)F [Compound 22]
11700 nM | 12 nM | 355 nM | 8710 nM | 11500 nM | 158 nM | 115 nM |  |  | Cc1nc2c(N)cc(N3CCOCC3)nn2c1Cc1cccc(F)c1C1CCN(CCO)CC1 [Compound 107]
